Measured values as given in US20120064020A1, “NOVEL COMPOSITION” (priority 2009, published 2012).

Tested on: IL-8
Test: Expression of IL-8 by epidermal human skin model (EST-1000) after IL-1alpha stimulation
Assay type: cell-based
Details: Table 7, 2 wt.-% in vehicle
Description: The Expression of IL-8 by epidermal human skin model after IL-1alpha stimulation has been assessed using 3D-Reconstituted Epidermis Models (EST-1000) (Cellsystems GmbH, St. Katharinen, Germany). The EST-1000 samples were equilibrated over night at 37° C. in a 5% CO^2 atmosphere according to manufacturer's instructions. Then, the EST-1000 samples were stimulated by addition of 10 ng/ml IL-1alpha (Peprotech, UK) to the culture medium.
Afterwards, one sample was treated with the vehicle (i.e. squalane, e.g. commercially available under the tradename Fitoderm®), whereas the other sample was treated with a mixture consisting of the vehicle comprising 2 wt.-% of the mixture of example 1 by topical addition to the tissue samples. At distinct time points, 200 ul medium samples were taken and frozen for further analysis. As can be retrieved from the results presented in table, the expression of the pro-inflammatory cytokine IL-8 by the epidermal human skin model (EST-1000) is suppressed by the addition of the composition according to example 1 in a dose dependent manner.
Furthermore, the expression of IL-8 by epidermal human skin model after IL-1alpha stimulation was assessed as outlined above using the single compounds CLA, Syn Coll®, spent grain wax as well as mixtures thereof.

## Conjugated linoleic acid [CLA]
T = 24 h
  Expression of cytokine IL-8, T = 24 h: 8161
T = 0 h
  Expression of cytokine IL-8, t = 0 h: 61
T = 2 h
  Expression of cytokine IL-8, t = 2 h: 2536
T = 4 h
  Expression of cytokine IL-8, t = 4 h: 5056
T = 8 h
  Expression of cytokine IL-8, t = 8 h: 5805
